Source: PMC3355094 (PLoS Pathogens, 2012)
Several values for one entry are separate records, joined by “and”; a condition that tells them apart may be missing. Equal entries are not always repeated.

tested on: CCL2; assay: Glycan array analysis of CCL2 (CFG mammalian glycan array V3.1); format: binding, Coprinopsis cinerea; conditions: Alexa Fluor 488 labeled CCL2 200 µg/ml, array V3.1, average of triplicates
Description: (§1) Purified CCL1 and CCL2 were fluorescently labeled with Alexa Fluor 488 (Invitrogen) according to the manufacturer's protocol and used (at a final concentration of 200 µg/ml) to probe versions 4.2 and 3.1, respectively, of the mammalian glycan array offered by Core H of the Consortium for Functional Glycomics (CFG).

Row | Compound | RFU (relative fluorescence units)
1 | C[C@@H]1O[C@@H](OCCCN)[C@H](O)[C@H](O)[C@H]1O [-L-Rha-Sp8] | 112.5 RFU
2 | -GlcNAc–Sp8 | 160.7 RFU
3 | [6OSO3]Gal1-4GlcNAc–Sp8 | 133.9 RFU
4 | [6OSO3]Gal1-4Glc–Sp8 | 269.4 RFU
5 | Gal1-3GlcNAc1-2Man1-3(Gal1-3GlcNAc1-2Man1-6)Man1-4GlcNAc1-4GlcNAc-Sp19 | 453.7 RFU
6 | Gal1-4GlcNAc1-2Man1-3(Gal1-4GlcNAc1-2Man1-6)Man1-4GlcNAc1- | 575.8 RFU
7 | [3OSO3]Gal1-3(Fuc1-4)GlcNAc–Sp8 | 628.7 RFU
8 | Neu5Ac2-8Neu5Ac-Sp17 | 155.0 RFU
9 | [3OSO3]Gal1-4(6OSO3)Glc–Sp8 | 1039.1 RFU
10 | -Neu5Ac-Sp8 | 122.4 RFU
11 | Neu5Gc2-6Gal1-4GlcNAc-Sp8 | 182.6 RFU
12 | -Neu5Ac–Sp8 | 247.4 RFU
13 | NCCCO[C@H]1O[C@H](CO)[C@@H](O)[C@H](O)[C@@H]1O [-D-Man–Sp8] | 152.9 RFU and 130.5 RFU
14 | [3OSO3]Gal1-4GlcNAc–Sp0 | 115.6 RFU
15 | NCCCO[C@@H]1O[C@H](CO)[C@@H](O)[C@H](O)[C@H]1NC(=O)CO [-GlcN(Gc)-Sp8, -GlcN(Gc)- Sp8] | 136.2 RFU
16 | (Gal1-4GlcNAc)2-3,6-GalNAc-Sp8 | 397.4 RFU
17 | [3OSO3]Gal1-4(6OSO3)Glc–Sp0 | 151.3 RFU
18 | CC(=O)N[C@H]1[C@H](OCCN)O[C@H](CO)[C@@H](O)[C@@H]1O [-GlcNAc–Sp0] | 172.7 RFU
19 | Neu5Ac2-8Neu5Ac2-8Neu5AcSp8 | 66.6 RFU
20 | [6OSO3]Gal1-4Glc–Sp0 | 307.4 RFU
21 | -Neu5Ac–Sp11 | 119.3 RFU
22 | 9NAcNeu5Ac2-6Gal1-4GlcNAc-Sp8 | 239.4 RFU
23 | -D-Gal–Sp8 | 280.7 RFU and 194.7 RFU
24 | 9NAcNeu5Ac-Sp8 | 8595.4 RFU
25 | [3OSO3]Gal1-4(Fuc1-3)GlcNAc–Sp8 | 265.1 RFU

same assay, conditions: fluorescently labeled CCL2 200 µg/ml, array V3.1

Row | Compound | binding on glycan array (in words)
26 | CC(=O)N[C@H]1[C@H](O[C@H]2[C@H](O[C@@H]3O[C@@H](C)[C@@H](O)[C@@H](O)[C@@H]3O)[C@@H](NC(C)=O)C(O)O[C@@H]2CO)O[C@H](CO)[C@H](O)[C@@H]1O (stereo partly shown) [fucosylated LacdiNAc, GalNAcβ1,4[Fucα1,3]GlcNAc] | binds

same assay, conditions: fluorescently labeled CCL2 200 µg/ml, array V3.1; listed as GalNAcβ1,4[Fucα1,3]GlcNAc

Row | Compound | binding on glycan array (in words)
27 | CC(=O)N[C@H]1[C@H](O[C@H]2[C@H](O[C@@H]3O[C@@H](C)[C@@H](O)[C@@H](O)[C@@H]3O)[C@@H](NC(C)=O)C(O)O[C@@H]2CO)O[C@H](CO)[C@H](O)[C@@H]1O (stereo partly shown) [fucosylated LacdiNAc, GalNAcβ1,4[Fucα1,3]GlcNAc] | one of the best binders

tested on: CCL1; assay: Glycan array analysis of CCL1 (CFG mammalian glycan array V4.2); format: binding, Coprinopsis cinerea; conditions: Alexa Fluor 488 labeled CCL1 200 µg/ml, array V4.2, average of triplicates
Description: as §1

Row | Compound | RFU (relative fluorescence units)
28 | [3OSO3]Gal1-3(Fuc1-4)GlcNAc-Sp8 | 89 RFU
29 | Fuc1-2Gal1-3(Fuc1-4)GlcNAc-Sp8 | 80 RFU
30 | [3OSO3]Gal1-4[6OSO3]GlcNAc-Sp0 | 293 RFU
31 | GalNAc1-4(Fuc1-3)GlcNAc-Sp0 | 7887 RFU
32 | [3OSO3]Gal-Sp8 | 42 RFU
33 | [3OSO3]Gal1-4(Fuc1-3)Glc-Sp0 | 140 RFU
34 | C[C@@H]1O[C@@H](OCCCN)[C@@H](O)[C@H](O)[C@@H]1O [Fuc-Sp8] | 26 RFU
35 | GalNAc1-3Gal1-4Gal1-4GlcNAc-Sp0 | 18 RFU
36 | CC(=O)N[C@H]1[C@H](OCCN)O[C@H](CO)[C@@H](O)[C@@H]1O [GlcNAc-Sp0] | 6 RFU
37 | [6OSO3]Gal1-4Glc-Sp0 | 23 RFU
38 | Neu5Ac-Sp11 | 247 RFU
39 | Fuc1-2Gal1-4GlcNAc1-3Gal1-4GlcNAc1-3Gal1-4GlcNAc-Sp0 | 61 RFU
40 | Fuc1-2Gal1-4(Fuc1-3)GlcNAc-Sp0 | 10 RFU
41 | Neu5Ac-Sp8 | 113 RFU and 98 RFU
42 | [6OSO3]Gal1-4GlcNAc-Sp8 | 27 RFU
43 | [6OSO3]Gal1-4Glc-Sp8 | 9 RFU
44 | [9NAc]Neu5Ac-Sp8 | 27 RFU
45 | Gal1-3(Fuc1-2)Gal1-4(Fuc1-3)GlcNAc-Sp8 | 35 RFU
46 | GlcNAc-Sp8 | 4 RFU
47 | Fuc1-2Gal1-4GlcNAc-Sp0 | 52 RFU
48 | Gal-Sp8 | 99 RFU and 68 RFU
49 | Fuc1-2Gal1-3GalNAc1-4(Neu5Ac2-3)Gal1-4Glc-Sp0 | 5 RFU
50 | Fuc1-2Gal-Sp8 | 12 RFU
51 | Gal1-3(Fuc1-2)Gal1-4(Fuc1-3)GlcNAc-Sp0 | 46 RFU
52 | Man1-3(Man1-6)Man1-4GlcNAc1-4GlcNAc-Sp12 | 84 RFU
53 | C[C@@H]1O[C@@H](OCCCN)[C@H](O)[C@H](O)[C@H]1O [Rha-Sp8] | 46 RFU
54 | GalNAc1-4GlcNAc-Sp0 | -11 RFU

Row | Compound | RFU (relative fluorescence units)
55 | Fuc1-2Gal1-3GlcNAc1-3Gal1-4Glc-Sp8 | 1 RFU
56 | GalNAc-Sp15 | 148 RFU
57 | Fuc1-2Gal1-3GalNAc1-3Gal1-4Gal1-4Glc-Sp9 | 76 RFU
58 | [6OSO3]GlcNAc-Sp8 | 14 RFU
59 | [3OSO3]Gal1-4(Fuc1-3)GlcNAc-Sp8 | 407 RFU
60 | Fuc1-2Gal1-3GlcNAc-Sp8 | 18 RFU
61 | Neu5Ac2-3[6OSO3]Gal1-4GlcNAc-Sp8 | 3479 RFU
62 | Fuc1-4GlcNAc-Sp8 | 62 RFU
63 | GalNAc1-3Gal-Sp8 | 8 RFU
64 | GalNAc1-3(Fuc1-2)Gal-Sp18 | 19 RFU
65 | GalNAc1-3GalNAc-Sp8 | 7 RFU and 14 RFU
66 | Gal1-4GlcNAc1-3(Gal1-4GlcNAc1-6)GalNAc-Sp8 | 24 RFU
67 | Gal1-3(Fuc1-2)Gal1-3GlcNAc-Sp0 | 61 RFU
68 | GalNAc1-3(Fuc1-2)Gal-Sp8 | 7 RFU and 8 RFU
69 | GalNAc1-4(Fuc1-2)Gal1-4GlcNAc-Sp8 | 13 RFU
70 | Fuc1-2Gal1-4(Fuc1-3)GlcNAc1-3Gal1-4(Fuc1-3)GlcNAc-Sp0 | 54 RFU
71 | [3OSO3]Gal1-4[6OSO3]Glc-Sp8 | 228 RFU
72 | [3OSO3]Gal1-4GlcNAc-Sp0 | 141 RFU
73 | Gal1-3(Fuc1-2)Gal1-3GlcNAc-Sp8 | 31 RFU
74 | Fuc1-2Gal1-3GalNAc1-3Gal-Sp9 | 129 RFU
75 | GalNAc1-3(Fuc1-2)Gal1-3GlcNAc-Sp0 | 100 RFU
76 | Fuc1-3GlcNAc-Sp8 | 30 RFU and 54 RFU
77 | [3OSO3]Gal1-4(Fuc1-3)GlcNAc-Sp0 | 383 RFU
78 | Neu5Ac2-6Gal1-4GlcNAc1-2Man1-3(Neu5Ac2-6Gal1-4GlcNAc1-2Man1-6)Man1-4GlcNAc1-4GlcNAc-N(LT)AVL | 78 RFU
79 | Fuc1-2Gal1-4(Fuc1-3)GlcNAc-Sp8 | 29 RFU
80 | [3OSO3]Gal1-4[6OSO3]Glc-Sp0 | 329 RFU
81 | Gal1-2Gal-Sp8 | 71 RFU

Row | Compound | RFU (relative fluorescence units)
82 | Neu5Ac2-6Gal1-4GlcNAc1-2Man1-3(Neu5Ac2-6Gal1-4GlcNAc1-2Man1-6)Man1-4GlcNAc1-4GlcNAc-Sp13 | 86 RFU
83 | Gal1-4GlcNAc1-2Man1-3(Gal1-4GlcNAc1-2Man1-6)Man1-4GlcNAc1-4GlcNAc-Sp12 | 121 RFU
84 | Fuc1-2Gal1-3GlcNAc-Sp0 | 3 RFU
85 | GalNAc1-3(Fuc1-2)Gal1-4GlcNAc-Sp8 | 25 RFU
86 | GalNAc1-3(Fuc1-2)Gal1-4GlcNAc-Sp0 | 82 RFU
87 | [3OSO3]Gal1-4(Fuc1-3)[6OSO3]Glc-Sp0 | 250 RFU
88 | GalNAc1-3(Fuc1-2)Gal1-4(Fuc1-3)GlcNAc-Sp0 | 75 RFU
89 | Fuc1-2Gal1-3GalNAc1-4(Neu5Ac2-3)Gal1-4Glc-Sp9 | 20 RFU
90 | GlcNAc1-3Gal1-3GalNAc-Sp8 | 11 RFU
91 | NCCCO[C@@H]1O[C@H](CO)[C@@H](O)[C@H](O)[C@H]1NC(=O)CO [GlcN(Gc)-Sp8] | 32 RFU
92 | Fuc1-2Gal1-3GalNAc-Sp14 | 25 RFU
93 | Fuc1-2Gal1-3GalNAc-Sp8 | 70 RFU
94 | GalNAc1-4GlcNAc-Sp8 | 3 RFU
95 | GalNAc1-3(Fuc1-2)Gal1-4Glc-Sp0 | 2 RFU
96 | Fuc1-2Gal1-4GlcNAc1-3Gal1-4GlcNAc-Sp0 | 15 RFU
97 | [9NAc]Neu5Ac2-6Gal1-4GlcNAc-Sp8 | 6 RFU
98 | Fuc1-2Gal1-3GlcNAc1-3Gal1-4Glc-Sp10 | 20 RFU
99 | GlcNAc1-2Man1-3(GlcNAc1-2Man1-6)Man1-4GlcNAc1-4GlcNAc-Sp12 | 90 RFU
100 | Fuc-Sp9 | -10 RFU
101 | Gal1-3(Fuc1-2)Gal1-4GlcNAc-Sp0 | 41 RFU
102 | [3OSO3]Gal1-3GlcNAc-Sp8 | 173 RFU
103 | [3OSO3]Gal1-3GlcNAc-Sp0 | 93 RFU
104 | Fuc1-2Gal1-4(Fuc1-3)GlcNAc1-3Gal1-4(Fuc1-3)GlcNAc1-3Gal1-4(Fuc1-3)GlcNAc-Sp0 | 1835 RFU
105 | Fuc1-2Gal1-4GlcNAc-Sp8 | 45 RFU
106 | Fuc1-2Gal1-4Glc-Sp0 | 47 RFU
